According to patent publication US20080269251A1, “Substituted Pyrazinone Derivatives as Alpha2C-Adrenoreceptor Antagonists” (priority 2005, published 2008):

What was measured:
[1] = target: T1, human adrenergic-α2C receptor (Homo sapiens, UniProt P18825); test: Radioligand binding experiment for hα2C-adrenoceptor ([3H]raulwolscine); details: [3H]raulwolscine 1 nM, 60 minutes at 25° C.; for IC50: read-out: h-α2C pIC50 (converted)
T1 construct: expressed in transfected cells; host or cells: CHO cells, stably transfected; membrane preparation
T1 sequence (P18825 1-462): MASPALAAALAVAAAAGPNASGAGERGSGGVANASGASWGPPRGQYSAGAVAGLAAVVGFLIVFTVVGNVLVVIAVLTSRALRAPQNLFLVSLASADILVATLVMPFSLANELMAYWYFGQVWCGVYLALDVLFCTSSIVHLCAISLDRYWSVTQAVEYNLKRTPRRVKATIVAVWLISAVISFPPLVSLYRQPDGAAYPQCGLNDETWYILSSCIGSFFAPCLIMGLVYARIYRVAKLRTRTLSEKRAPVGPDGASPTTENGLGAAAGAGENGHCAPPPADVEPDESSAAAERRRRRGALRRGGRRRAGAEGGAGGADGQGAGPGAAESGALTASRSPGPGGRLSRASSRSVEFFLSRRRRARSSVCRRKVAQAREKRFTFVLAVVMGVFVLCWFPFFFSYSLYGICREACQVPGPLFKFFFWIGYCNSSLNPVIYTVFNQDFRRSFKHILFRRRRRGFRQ
Protocol: (§1) The interaction of the compounds of Formula (I) with α2C-adrenoceptor receptors was assessed in in vitro radioligand binding experiments. In general, a low concentration of a radioligand with a high binding affinity for a particular receptor or transporter is incubated with a sample of a tissue preparation enriched in a particular receptor or transporter or with a preparation of cells expressing cloned human receptors in a buffered medium. During the incubation, the radioligand binds to the receptor or transporter. When equilibrium of binding is reached, the receptor bound radioactivity is separated from the non-bound radioactivity, and the receptor- or transporter-bound activity is counted. The interaction of the test compounds with the receptor is assessed in competition binding experiments. Various concentrations of the test compound are added to the incubation mixture containing the receptor- or transporter preparation and the radioligand. The test compound in proportion to its binding affinity and its concentration inhibits binding of the radioligand. The radioligand used for […] receptor binding was [^3H]-raulwolscine.
(§2) CHO cells, stabile transfected with human adrenergic-α2A, -α2B or α2C receptor cDNA, were cultured in Dulbecco's Modified Eagle's Medium (DMEM)/Nutrient mixture Ham's F12 (ratio 1:1)(Gibco, Gent-Belgium) supplemented with 10% heat inactivated fetal calf serum (Life Technologies, Merelbeke-Belgium) and antibiotics (100 IU/ml penicillin G, 100 μg/ml streptomycin sulphate, 110 μg/ml pyruvic acid and 100 μg/ml L-glutamine). One day before collection, cells were induced with 5 mM sodiumbutyrate. Upon 80-90% of confluence, cells were scraped in phosphate buffered saline without Ca^2+ and Mg^2+ and collected by centrifugation at 1500×g for 10 minutes. The cells were homogenised in Tris-HCl 50 mM using an Ultraturrax homogenizer and centrifuged for 10 minutes at 23,500×g. The pellet was washed once by resuspension and rehomogenization and the final pellet was resuspended in Tris-HCl, divided in 1 ml aliquots and stored at −70° C.
(§3) Membranes were thawed and re-homogenized in incubation buffer (glycylglycine 25 mM, pH 8.0). In a total volume of 500 μl, 2-10 μg protein was incubated with [^3H]raulwolscine (NET-722) (New England Nuclear, USA) (1 nM final concentration) with or without competitor for 60 minutes at 25° C. followed by rapid filtration over GF/B filter using a Filtermate196 harvester (Packard, Meriden, Conn.). Filters were rinsed extensively with ice-cold rinsing buffer (Tris-HCl 50 mM pH 7.4). Filter-bound radioactivity was determined by scintillation counting in a Topcount (Packard, Meriden, Conn.) and results were expressed as counts per minute (cpm). Non-specific binding was determined in the presence of 1 μM oxymetazoline for hα2A- and hα2B receptors and 1 μM spiroxatrine for hα2C receptors.
(§4) Data from assays in the presence of compound were calculated as a percentage of total binding measured in the absence of test compound. Inhibition curves, plotting percent of total binding versus the log value of the concentration of the test compound, were automatically generated, and sigmoidal inhibition curves were fitted using non-linear regression. The pIC50 values of test compounds were derived from individual curves.

[2] = target: T2, human adrenergic-α2A receptor (Homo sapiens, UniProt P08913); test: Radioligand binding experiment for hα2A-adrenergic receptor ([3H]raulwolscine); details: [3H]raulwolscine 1 nM, 60 minutes at 25° C.; for IC50: read-out: h-α2A pIC50 (converted)
T2 construct: expressed in transfected cells; host or cells: CHO cells, stably transfected; membrane preparation
T2 sequence (P08913 1-465): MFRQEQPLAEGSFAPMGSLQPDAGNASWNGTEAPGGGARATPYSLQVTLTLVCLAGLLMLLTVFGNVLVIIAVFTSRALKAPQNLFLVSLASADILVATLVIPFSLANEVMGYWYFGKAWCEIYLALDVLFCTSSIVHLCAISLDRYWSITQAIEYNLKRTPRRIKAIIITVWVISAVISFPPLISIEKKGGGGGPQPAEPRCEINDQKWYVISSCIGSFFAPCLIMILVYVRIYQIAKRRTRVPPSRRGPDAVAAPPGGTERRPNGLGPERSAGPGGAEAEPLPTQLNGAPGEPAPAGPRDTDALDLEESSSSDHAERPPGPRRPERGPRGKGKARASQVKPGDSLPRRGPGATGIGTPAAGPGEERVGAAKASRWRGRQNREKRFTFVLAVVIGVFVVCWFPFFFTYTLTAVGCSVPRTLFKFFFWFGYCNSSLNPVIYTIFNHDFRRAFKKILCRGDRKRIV
Protocol: as §1, §2, §3, §4

5HT-transporter = target: T3, 5HT-transporter (Homo sapiens, UniProt P31645); test: Binding experiment for the 5HT-transporter ([3H]paroxetine, human platelet membranes); details: [3H]paroxetine 0.5 nM, 60 min at 25° C.; for IC50: read-out: h-5HTT pIC50 (converted)
T3 construct: Human platelet membranes (Oceanix Biosciences Corporation, Hanover, Md., USA) were thawed; tissue Oceanix Biosciences Corporation, Hanover, Md., USA; host or cells: human platelet membranes
T3 sequence (P31645 whole entry): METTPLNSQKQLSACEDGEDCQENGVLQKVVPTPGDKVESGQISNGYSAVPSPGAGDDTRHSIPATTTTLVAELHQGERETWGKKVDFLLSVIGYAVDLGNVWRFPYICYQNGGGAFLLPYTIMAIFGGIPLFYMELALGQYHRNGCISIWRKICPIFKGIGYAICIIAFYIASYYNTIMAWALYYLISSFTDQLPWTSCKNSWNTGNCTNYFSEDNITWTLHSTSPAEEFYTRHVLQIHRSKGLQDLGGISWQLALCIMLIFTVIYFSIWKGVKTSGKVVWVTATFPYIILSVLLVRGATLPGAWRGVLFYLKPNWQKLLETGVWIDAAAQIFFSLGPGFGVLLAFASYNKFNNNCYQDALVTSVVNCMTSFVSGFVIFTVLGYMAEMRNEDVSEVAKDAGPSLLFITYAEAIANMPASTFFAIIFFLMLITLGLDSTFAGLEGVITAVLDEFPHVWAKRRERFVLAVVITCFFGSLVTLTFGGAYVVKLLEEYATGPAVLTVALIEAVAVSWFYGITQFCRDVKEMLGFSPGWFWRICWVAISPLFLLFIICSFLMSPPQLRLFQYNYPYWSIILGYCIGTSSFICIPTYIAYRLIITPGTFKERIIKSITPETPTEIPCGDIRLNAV
Protocol: as §1
Human platelet membranes (Oceanix Biosciences Corporation, Hanover, Md., USA) were thawed, diluted in buffer (Tris-HCl 50 mM, 120 mM NaCl and 5 mM KCl) and quickly (max 3 s) homogenised with an Ultraturrax homogenizer. […] Incubation was stopped by rapid filtration of the incubation mixture over GF/B filters, pre-wetted with 0.1% polyethyleneamine, using a Filtermate196 harvester (Packard, Meriden, Conn.). Filters were rinsed extensively with ice-cold buffer and radioactivity on the filters was counted in a Topcount liquid scintillation counter (Packard, Meriden, Conn.). Data were expressed as cpm. Imipramine (at 1 μM final concentration) was used to determine the non-specific binding.
as §4

Row | SMILES | IC50 [1] [nM] | IC50 [2] [nM] | IC50 (5HT-transporter) [nM] | h-α2C pIC50 [1] | h-α2A pIC50 [2] | h-5HTT pIC50 (5HT-transporter)
1 | CC(C)(C)OC(=O)NCc1ccc(Cn2ccnc(NC3CCN(Cc4ccc5ccccc5c4)CC3)c2=O)cc1 [1-34] | 100 | 251 | 79.4 |  |  | 
2 | CN(CCCn1ccnc(NC2CCN(Cc3ccc4ccccc4c3)CC2)c1=O)C(=O)OC(C)(C)C [1-35] | 25.1 | 316 | 39.8 |  |  | 
3 | COC(=O)CN(C)Cc1ccc(-n2ccnc(NC3CCN(Cc4ccc5ccccc5c4)CC3)c2=O)cc1 [1-36] | 50.1 | 501 | 158 |  |  | 
4 | COC(=O)CCCC(=O)NCc1ccc(-n2ccnc(NC3CCN(Cc4ccc5ccccc5c4)CC3)c2=O)cc1 [1-37] | 39.8 | 631 | 12.6 |  |  | 
5 | C#CCN(C)C(=O)Cn1ccnc(NC2CCN(Cc3ccc4ccccc4c3)CC2)c1=O [1-38] | 63.1 | 398 | 1580 |  |  | 
6 | CN(C)CCN(C)Cc1ccc(-n2ccnc(NC3CCN(Cc4ccc5ccccc5c4)CC3)c2=O)cc1 [1-39] | 15.8 | 79.4 | 63.1 |  |  | 
7 | CCCNC(=O)NCc1ccc(-n2ccnc(NC3CCN(Cc4ccc5ccccc5c4)CC3)c2=O)cc1 [1-40] | 100 | 1260 | 50.1 |  |  | 
8 | O=C(NCc1ccc(-n2ccnc(NC3CCN(Cc4ccc5ccccc5c4)CC3)c2=O)cc1)NCC1CCCCC1 [1-41] |  |  |  | 7.2 | 6.2 | 7.2
9 | O=C(Cc1ccccc1)NCc1ccc(-n2ccnc(NC3CCN(Cc4ccc5ccccc5c4)CC3)c2=O)cc1 [1-42] | 31.6 | 501 | 5.01 |  |  | 
10 | O=C(CCc1ccccc1)NCc1ccc(-n2ccnc(NC3CCN(Cc4ccc5ccccc5c4)CC3)c2=O)cc1 [1-43] | 39.8 | 251 | 6.31 |  |  | 
11 | CN(C)CCNC(=O)NCc1ccc(-n2ccnc(NC3CCN(Cc4ccc5ccccc5c4)CC3)c2=O)cc1 [1-44] | 12.6 | 63.1 | 7.94 |  |  | 
12 | COCCNC(=O)NCc1ccc(-n2ccnc(NC3CCN(Cc4ccc5ccccc5c4)CC3)c2=O)cc1 [1-45] | 31.6 | 398 | 25.1 |  |  | 
13 | COCCCNC(=O)NCc1ccc(-n2ccnc(NC3CCN(Cc4ccc5ccccc5c4)CC3)c2=O)cc1 [1-46] | 39.8 | 501 | 63.1 |  |  | 
14 | COC(=O)CCNC(=O)NCc1ccc(-n2ccnc(NC3CCN(Cc4ccc5ccccc5c4)CC3)c2=O)cc1 [1-47] |  |  |  | 7.5 | 6.3 | 7.6
15 | O=C(NCc1ccccc1)NCc1ccc(-n2ccnc(NC3CCN(Cc4ccc5ccccc5c4)CC3)c2=O)cc1 [1-48] | 39.8 | 316 | 10 |  |  | 
